The text below walks through data of patent US20160235778A1, “COMPOSITIONS CONTAINING PUFA, URIDINE AND CHOLINE AND METHODS OF USE THEREOF” (MASSACHUSETTS INSTITUTE OF TECHNOLOGY, priority 2014, published 2016).

Structures are written as SMILES.

Assay [1] has as its system brain phospholipids. Description: Brain phospholipid levels in gerbils given UMP diet and/or PUFA by gavage. The assay is classed as in vivo, gerbil. More on the design: PC / PE / PS / PI: unit not given here. The procedure: Control standard diet (Table 4) consisted of Teklad Global 16% protein rodent diet (Harlan Teklad, Madison, Wis.), which contained 0.1% choline chloride (CC), corresponding to a daily dose of 50 mg/kg/day. UMP was provided as 0.5% UMP·2Na^+ weight/weight, added to the control diet, also prepared by Harlan Teklad, corresponding to 240 mg/kg/day UMP. DHA was administered as 300 mg/kg/day in 200 microliter (mcL)/day 5% Arabic Gum solution, while groups not receiving DHA were administered vehicle (5% Arabic Gum) alone. DHA was provided by Nu-Chek Prep (Elysian, MN) and UMP by Numico (Wagenigen, NL).
Gerbils were anesthetized with ketamine and xylazine (80 and 10 mg/kg bwt, i.p.) and sacrificed by immersing the head into liquid nitrogen for 2 min, followed by decapitation. Brains were immediately and quickly (30 seconds) removed using a bone rongeur and stored at −80° C.
Frozen brain hemispheres were weighed and homogenized in 100 volumes of ice-cold deionized water using a tissue degrader (Polytron PT 10-35, Kinematica AG, Switzerland), then analyzed as described in Example 1.
Protein in whole brain homogenate sample was measured for using bicinchoninic acid reagent (Perkin Elmer, Norwalk, Conn., USA). DNA was measured by measuring 460 nm emission of samples on a fluorometer in the presence of bisbenzimidizole, a fluorescent dye known as Hoechst H 33258 (American Hoechst Corporation), which has an excitation maximum at 356 nm and an emission maximum of 458 when bound to DNA.
Male gerbils weighing 80-100 g were divided into 4 groups of 8 gerbils and administered the supplements depicted in Table 1:
Adult gerbils were administered control standard diet (Table 4) with our without 0.5% UMP and/or 300 mg/kg/day DHA, EPA, or AA. Groups not receiving DHA were administered vehicle (5% Arabic Gum) alone.

The test system of assay [2] is brain CDP-choline. Description: Brain CDP-choline and CDP-ethanolamine levels (HPLC). The assay is classed as in vivo. The conditions noted are these: gerbil. The procedure: FIG. 5A-B. Effects of DHA on brain CDP-choline levels (FIG. 5A) and CDP-ethanolamine levels (FIG. 5B). Groups of 8 gerbils received either a control or a UMP-containing diet, and, by gavage, DHA (in a vehicle of 5% gum Arabic solution) or 5% gum Arabic solution alone for 28 days. On the 29th day brains were harvested and assayed for CDP-choline. Data are presented as means±SEM. Statistical analysis was performed using one- or two-way ANOVA followed by Tukey test. a: P<0.05 when compared with the values for control diet plus vehicle group; b: P<0.05 when compared with values for UMP diet plus vehicle group.
Aliquots (2 ml) of the upper (aqueous) phase were dried under a vacuum, reconstituted, and injected into an HPLC. The dried samples were reconstituted in 100-200 μl water and were analyzed by HPLC on an anion exchange column (Alltech Hypersil APS-2, […], 250×4.6 mm). CDP-choline was eluted with a linear gradient of buffers A (H3PO4, 1.75 mM, pH 2.9) and B (NaH2PO2, 500 mM, pH 4.5) from 0 to 100% B over period of 30 min. With this system, CDP-choline was resolved from closely co-eluting substances such as UMP in an isocratic system over a period of 40 min. The retention time for CDP-choline was 9.5 min. The column was washed with buffer B at the end of each experiment and every several days to remove retained nucleotides. Individual nucleotide peaks were detected by UV absorption at 280 nm and were identified by comparison with the positions of authentic standards, as well as by the addition of nucleotide standards to samples.

Assay [3] deals with hippocampal dendritic spines. Kind of assay: Hippocampal dendritic spine numbers in pups of treated pregnant and nursing mothers. The conditions noted are these: rat pups, mothers treated 10 days before parturition and 20 days while nursing. The assay is classed as in vivo. The source says:
In another study, pregnant rats were allowed to consume ad libitum, for 10 days before parturition and 20 days while nursing, either a choline-containing control diet or this diet supplemented with uridine as UMP; half of each group also received DHA or its diluent daily, by gavage. Pups were then sacrificed and brain slices were examined to determine numbers of hippocampal dendritic spines.

Assay [4] has as its system SHSY-5Y cells. Kind of assay: 14C-choline incorporation into phospholipids in SHSY-5Y cells. The assay is classed as cell-based, human. The procedure: SHSY-5Y cells were grown to near confluency in DMEM+10% FBS in 35 mm dishes. Cells were incubated for 18 hr in serum-free DMEM+1% FBS containing 30 μM choline+/−10 μM of DHA, arachidonic acid, or palmitic acid. Cells were then labeled, and labeled phospholipids were quantified as described for Example 1.
DHA was dissolved in ethanol to a […] concentration and frozen in 10 microliter aliquots at −80° C. For each experiment, one aliquot was diluted in ethanol to 10 micromolar; the volume giving the desired final solution in incubation medium was mixed with an equal volume of BSA solution (1 gm/ml).
The effect of arachidonic acid on phospholipid synthesis in SHSY-5Y cells was further characterized as described for omega-3 fatty acids and PC-12 cells in Example 2. […] Thus, omega-6 fatty acids stimulate synthesis of a variety of phospholipids in a dose-dependent manner.

Setting [5] is: gerbil brain, 3 weeks, 0.5% UMP and/or 300 mg/kg/day PUFA, Table 6.
[6] abbreviates: gerbil brain, 4 weeks, normalized to DNA levels, mean +/- SEM.
Setting [7] is: gerbil brain, 4 weeks, normalized to protein levels, mean +/- SEM.
Where [8] appears, read: gerbil brain, Table 5 part B, One week.
Setting [9] is: gerbil brain, Table 5 part B, Three weeks.
[10] abbreviates: gerbil, Table 5A study, vs control.

In assay [1] (setting [5]), `CCC=CCC=CCC=CCC=CCC=CCCCC(=O)O` [EPA, 5,8,11,14,17-eicosapentaenoic acid] returned a PC of 125 ± 8, a PE of 76 ± 4, a PI of 22 ± 2 and a PS of 31 ± 1. For the same molecule, in assay [1] (setting [5]), the SM came to 26 ± 3 and the “Total PL” value was 347 ± 19. In addition, the “brain phospholipid levels, in words” value in assay [1] (gerbil, 3 weeks) is reported as “increased phospholipid levels”.
As for `O=c1ccn([C@@H]2O[C@H](COP(=O)(O)O)[C@@H](O)[C@H]2O)c(=O)[nH]1` [UMP, uridine monophosphate], the “brain CDP-choline levels, in words” value in assay [2] (FIG. 5A) is “decreased”. Moreover, the “brain CDP-ethanolamine levels, in words” value in assay [2] (FIG. 5B) is “decreased”. In assay [1] (setting [5]), this molecule came in with a PC of 131 ± 2, a PE of 70 ± 1, a PI of 16 ± 1 and a PS of 29 ± 1. Also, in assay [1] (setting [5]), the SM stood at 22 ± 1 and the “Total PL” value is given as 332 ± 5. Besides, in assay [1] (setting [6]), the PC came to 368 ± 10, the PE was found to be 195 ± 9, the PI is given as 78 ± 6 and the PS worked out at 86 ± 7. Moreover, in assay [1] (setting [6]), the SM is 111 ± 4 and the “Total PL” value came to 878 ± 18. Also, in assay [1] (setting [7]), the PC was 171 ± 8, the PE stood at 84 ± 8, the PI amounted to 31 ± 2 and the PS is 35 ± 3. In assay [1] (setting [7]), the SM was found to be 52 ± 5 and the “Total PL” value is 367 ± 22. In addition, in assay [1] (gerbil brain, 4 weeks, vs control group), the “increase in levels of total phospholipids” value was found to be 5%. In assay [1] (gerbil brain, Table 5 part A), this molecule gave a PtdCho of 171 ± 8 nmol/mg prt, a PtdEtn of 64 ± 8 nmol/mg prt, a PtdIns of 31 ± 2 nmol/mg prt and a PtdSer of 35 ± 3 nmol/mg prt. In assay [1] (gerbil brain, Table 5 part A), the SM was determined as 52 ± 5 nmol/mg prt and the “Total PL” value was determined as 367 ± 22 nmol/mg prt. For the same molecule, in assay [1] (setting [8]), the PtdCho came to 154 ± 6 nmol/mg prt, the PtdEtn stood at 63 ± 4 nmol/mg prt, the PtdIns is reported as 20 ± 4 nmol/mg prt and the PtdSer was determined as 39 ± 1 nmol/mg prt. In assay [1] (setting [8]), the SM was 49 ± 3 nmol/mg prt and the “Total PL” value stood at 390 ± 21 nmol/mg prt. Further, in assay [1] (setting [9]), the PtdCho worked out at 199 ± 5 nmol/mg prt, the PtdEtn is 87 ± 4 nmol/mg prt, the PtdIns turned out to be 25 ± 1 nmol/mg prt and the PtdSer worked out at 42 ± 2 nmol/mg prt. For the same molecule, in assay [1] (setting [9]), the SM came to 70 ± 4 nmol/mg prt and the “Total PL” value is recorded as 479 ± 6 nmol/mg prt. Besides, the “effect on brain phospholipids after 1 week of treatment” value in assay [1] (gerbil, 1 week) is “no significant effects”. Besides, in assay [1] (setting [10]), the “increase in brain level of PC” value is 13%, the “increase in brain level of PE” value was 29% and the “increase in brain level of PI” value came to 48%. For the same molecule, the “increases in brain phospholipids, in words” value in assay [1] (gerbil, treatment for 3 weeks) is on record as “smaller but still significant increases”. Besides, in assay [3], the “Increase over control (%)” value came to 28% and the Number of spines is recorded as 68.
Take `CCCCCC=CCC=CCC=CCC=CCCCC(=O)O` [arachidonic acid, 5,8,11,14-eicosatetraenoic acid]: in assay [4] (18 h with 10 μM fatty acid, FIG. 3A), the phospholipid synthesis result is listed as “enhanced”. The “synthesis of total phospholipids, PC and phosphatidylethanolamine” value in assay [4] (range of dosages, dose-dependent, FIG. 3B) was “increased synthesis”. Further, the “brain phospholipid levels, in words” value in assay [1] (gerbil, 3 weeks) is “increased phospholipid levels”.
